Tests used:
[1] = test system: ABUTH (Velvetleaf); assay: Postemergence herbicidal evaluation; format: in vivo, Abutilon theophrasti; details: postemergence
Method in brief: (§1)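 Two-week seedlings sprayed postemergence at 40 psi; formulation: 1:1 acetone/water, 0.5% TWEEN 20; application ≈0.0156–0.500 kg/ha. Greenhouse grow-out, then 0–9 visual scoring at 4–5 weeks.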

[2] = test system: AMBEL (Ragweed, Common); assay: Postemergence herbicidal evaluation; format: in vivo, Ambrosia artemisifolia; details: postemergence
Method in brief: as §1

[3] = test system: ECHCG (Barnyardgrass); assay: Postemergence herbicidal evaluation; format: in vivo, Echinochloa crus-galli; details: postemergence
Method in brief: as §1

[4] = test system: SETVI (Foxtail, Green); assay: Postemergence herbicidal evaluation; format: in vivo, Setaria viridis; details: postemergence
Method in brief: as §1

[5] = test system: GLXMAW (Soybean, Williams); assay: Postemergence herbicidal evaluation; format: in vivo, Glycine max, (L.) Merr. cv Williams; details: postemergence
Method in brief: as §1

[6] = test system: ORYSAT (Rice, Tebonnet); assay: Postemergence herbicidal evaluation; format: in vivo, Oryza sativa, (L.) Tebonnet; details: postemergence
Method in brief: as §1

[7] = test system: TRZAWR (Wheat, Winter, cv Riband); assay: Postemergence herbicidal evaluation; format: in vivo, Triticum aestivum; details: postemergence
Method in brief: as §1

[8] = test system: ABUTH (Velvetleaf); assay: Preemergence herbicidal evaluation; format: in vivo, Abutilon theophrasti; details: rated 4-5 weeks after treatment
Method in brief: (§2)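 Seeds were mixed with potting soil and planted on about one inch of soil, then sprayed with test compound in aqueous acetone at about 0.0156 to 0.500 kg per hectare. Plants grew under standard greenhouse care and were visually rated 0-9 against untreated controls 4-5 weeks post-treatment.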

[9] = test system: CASOB (Sicklepod); assay: Preemergence herbicidal evaluation; format: in vivo, Cassia obtusifolia; details: rated 4-5 weeks after treatment
Method in brief: as §2

[10] = test system: SETVI (Foxtail, Green); assay: Preemergence herbicidal evaluation; format: in vivo, Setaria viridis; details: rated 4-5 weeks after treatment
Method in brief: as §2

[11] = test system: MOOVA (Monochoria); assay: Preemergence weed control under flooded paddy conditions; format: in vivo, Monochoria vaginalis; details: rated 3-4 weeks after treatment
Method in brief: (§3)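 Values are visual 0-9 scores against a control for a preemergence application into paddy flood water at about 0.0313 to 0.500 kg/ha. Greenhouse duration was three to four weeks.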

[12] = test system: SAGPY (Arrowhead (Pygmaea)); assay: as above; format: in vivo, Sagittaria pygmaea; details: rated 3-4 weeks after treatment
Method in brief: as §3

Cn1c(C(F)(F)F)cc(=O)n(-c2cc(N=C3SCC(=O)N3C3CCC3)c(Cl)cc2F)c1=O [Compound 168, 3-{4-Chloro-5-[(3-cyclobutyl-4-oxo-2-thiazolidinylidene)amino]-2-fluorophenyl}-1-methyl-6-(trifluoromethyl)-2,4(1H,3H)-pyrimidinedione]
Herbicidal rating ABUTH ([1]; rate 0.0156 kg/ha): 9.0 | Herbicidal rating ABUTH ([1]; rate 0.0313 kg/ha): 9.0 | Herbicidal rating ABUTH ([1]; rate 0.0625 kg/ha): 9.0 | Herbicidal rating AMBEL ([2]; rate 0.0156 kg/ha): 3.0 | Herbicidal rating AMBEL ([2]; rate 0.0313 kg/ha): 9.0 | Herbicidal rating AMBEL ([2]; rate 0.0625 kg/ha): 9.0 | Herbicidal rating ECHCG ([3]; rate 0.0156 kg/ha): 0.0 | Herbicidal rating ECHCG ([3]; rate 0.0313 kg/ha): 0.0 | Herbicidal rating ECHCG ([3]; rate 0.0625 kg/ha): 4.0 | Herbicidal rating SETVI ([4]; rate 0.0156 kg/ha): 0.0 | Herbicidal rating SETVI ([4]; rate 0.0313 kg/ha): 0.0 | Herbicidal rating SETVI ([4]; rate 0.0625 kg/ha): 3.0 | Herbicidal rating GLXMAW ([5]; rate 0.0156 kg/ha): 5.5 | Herbicidal rating GLXMAW ([5]; rate 0.0313 kg/ha): 6.5 | Herbicidal rating GLXMAW ([5]; rate 0.0625 kg/ha): 7.0 | Herbicidal rating ORYSAT ([6]; rate 0.0156 kg/ha): 1.0 | Herbicidal rating ORYSAT ([6]; rate 0.0313 kg/ha): 1.5 | Herbicidal rating ORYSAT ([6]; rate 0.0625 kg/ha): 2.5 | Herbicidal rating TRZAWR ([7]; rate 0.0156 kg/ha): 3.5 | Herbicidal rating TRZAWR ([7]; rate 0.0313 kg/ha): 3.5 | Herbicidal rating TRZAWR ([7]; rate 0.0625 kg/ha): 4.0 | Preemergence herbicidal rating ABUTH ([8]; 0.0156 kg/ha): 0.0 | Preemergence herbicidal rating ABUTH ([8]; 0.0313 kg/ha): 0.0 | Preemergence herbicidal rating ABUTH ([8]; 0.0625 kg/ha): 4.0 | Preemergence herbicidal rating ABUTH ([8]; 0.1250 kg/ha): 9.0 | Preemergence herbicidal rating ABUTH ([8]; 0.2500 kg/ha): 9.0 | Preemergence herbicidal rating CASOB ([9]; 0.0156 kg/ha): 0.0 | Preemergence herbicidal rating CASOB ([9]; 0.0313 kg/ha): 0.0 | Preemergence herbicidal rating CASOB ([9]; 0.0625 kg/ha): 0.0 | Preemergence herbicidal rating CASOB ([9]; 0.1250 kg/ha): 0.0 | Preemergence herbicidal rating CASOB ([9]; 0.2500 kg/ha): 0.0 | Preemergence herbicidal rating SETVI ([10]; 0.0156 kg/ha): 0.0 | Preemergence herbicidal rating SETVI ([10]; 0.0313 kg/ha): 0.0 | Preemergence herbicidal rating SETVI ([10]; 0.0625 kg/ha): 0.0 | Preemergence herbicidal rating SETVI ([10]; 0.1250 kg/ha): 0.0 | Preemergence herbicidal rating SETVI ([10]; 0.2500 kg/ha): 5.0 | herbicidal effect rating, MOOVA ([11]; 0.0313 kg/ha): 6.0 | herbicidal effect rating, MOOVA ([11]; 0.0625 kg/ha): 6.0 | herbicidal effect rating, MOOVA ([11]; 0.1250 kg/ha): 6.0 | herbicidal effect rating, MOOVA ([11]; 0.2500 kg/ha): 7.0 | herbicidal effect rating, SAGPY ([12]; 0.0313 kg/ha): 0.0 | herbicidal effect rating, SAGPY ([12]; 0.0625 kg/ha): 0.0 | herbicidal effect rating, SAGPY ([12]; 0.1250 kg/ha): 0.0 | herbicidal effect rating, SAGPY ([12]; 0.2500 kg/ha): 2.0

CC(C)N1C(=O)CSC1=Nc1cc(-n2c(=O)cc(C(F)(F)F)n(C)c2=O)c(F)cc1Cl [Compound 164, 3-{4-Chloro-2-fluoro-5-[(3-isopropyl-4-oxo-2-thiazolidinylidene)amino]phenyl}-1-methyl-6-(trifluoromethyl)-2,4(1H,3H)-pyrimidinedione]
Herbicidal rating ABUTH ([1]; rate 0.0156 kg/ha): 9.0 | Herbicidal rating ABUTH ([1]; rate 0.0313 kg/ha): 9.0 | Herbicidal rating ABUTH ([1]; rate 0.0625 kg/ha): 9.0 | Herbicidal rating ABUTH ([1]; rate 0.1250 kg/ha): 9.0 | Herbicidal rating AMBEL ([2]; rate 0.0156 kg/ha): 7.0 | Herbicidal rating AMBEL ([2]; rate 0.0313 kg/ha): 9.0 | Herbicidal rating AMBEL ([2]; rate 0.0625 kg/ha): 9.0 | Herbicidal rating AMBEL ([2]; rate 0.1250 kg/ha): 9.0 | Herbicidal rating ECHCG ([3]; rate 0.0156 kg/ha): 2.0 | Herbicidal rating ECHCG ([3]; rate 0.0313 kg/ha): 3.0 | Herbicidal rating ECHCG ([3]; rate 0.0625 kg/ha): 3.0 | Herbicidal rating ECHCG ([3]; rate 0.1250 kg/ha): 3.0 | Herbicidal rating SETVI ([4]; rate 0.0156 kg/ha): 4.0 | Herbicidal rating SETVI ([4]; rate 0.0313 kg/ha): 7.0 | Herbicidal rating SETVI ([4]; rate 0.0625 kg/ha): 9.0 | Herbicidal rating SETVI ([4]; rate 0.1250 kg/ha): 6.0 | Herbicidal rating GLXMAW ([5]; rate 0.0156 kg/ha): 6.0 | Herbicidal rating GLXMAW ([5]; rate 0.0313 kg/ha): 6.0 | Herbicidal rating GLXMAW ([5]; rate 0.0625 kg/ha): 7.0 | Herbicidal rating GLXMAW ([5]; rate 0.1250 kg/ha): 7.5 | Herbicidal rating ORYSAT ([6]; rate 0.0156 kg/ha): 2.5 | Herbicidal rating ORYSAT ([6]; rate 0.0313 kg/ha): 4.0 | Herbicidal rating ORYSAT ([6]; rate 0.0625 kg/ha): 5.0 | Herbicidal rating ORYSAT ([6]; rate 0.1250 kg/ha): 5.0 | Herbicidal rating TRZAWR ([7]; rate 0.0156 kg/ha): 4.0 | Herbicidal rating TRZAWR ([7]; rate 0.0313 kg/ha): 4.5 | Herbicidal rating TRZAWR ([7]; rate 0.0625 kg/ha): 5.5 | Herbicidal rating TRZAWR ([7]; rate 0.1250 kg/ha): 5.5 | Preemergence herbicidal rating ABUTH ([8]; 0.0156 kg/ha): 6.0 | Preemergence herbicidal rating ABUTH ([8]; 0.0313 kg/ha): 9.0 | Preemergence herbicidal rating ABUTH ([8]; 0.0625 kg/ha): 9.0 | Preemergence herbicidal rating ABUTH ([8]; 0.1250 kg/ha): 9.0 | Preemergence herbicidal rating ABUTH ([8]; 0.2500 kg/ha): 9.0 | Preemergence herbicidal rating ABUTH ([8]; 0.5000 kg/ha): 9.0 | Preemergence herbicidal rating CASOB ([9]; 0.0156 kg/ha): 1.0 | Preemergence herbicidal rating CASOB ([9]; 0.0313 kg/ha): 0.0 | Preemergence herbicidal rating CASOB ([9]; 0.0625 kg/ha): 7.0 | Preemergence herbicidal rating CASOB ([9]; 0.1250 kg/ha): 7.0 | Preemergence herbicidal rating CASOB ([9]; 0.2500 kg/ha): 9.0 | Preemergence herbicidal rating CASOB ([9]; 0.5000 kg/ha): 5.0 | Preemergence herbicidal rating SETVI ([10]; 0.0156 kg/ha): 4.0 | Preemergence herbicidal rating SETVI ([10]; 0.0313 kg/ha): 9.0 | Preemergence herbicidal rating SETVI ([10]; 0.0625 kg/ha): 9.0 | Preemergence herbicidal rating SETVI ([10]; 0.1250 kg/ha): 9.0 | Preemergence herbicidal rating SETVI ([10]; 0.2500 kg/ha): 9.0 | Preemergence herbicidal rating SETVI ([10]; 0.5000 kg/ha): 9.0 | herbicidal effect rating, MOOVA ([11]; 0.0313 kg/ha): 8.0 | herbicidal effect rating, MOOVA ([11]; 0.0625 kg/ha): 9.0 | herbicidal effect rating, MOOVA ([11]; 0.1250 kg/ha): 9.0 | herbicidal effect rating, MOOVA ([11]; 0.2500 kg/ha): 9.0 | herbicidal effect rating, SAGPY ([12]; 0.0313 kg/ha): 4.0 | herbicidal effect rating, SAGPY ([12]; 0.0625 kg/ha): 4.0 | herbicidal effect rating, SAGPY ([12]; 0.1250 kg/ha): 5.0 | herbicidal effect rating, SAGPY ([12]; 0.2500 kg/ha): 6.0

Reference: patent publication US20020137929A1, “1 - (3-heterocyclylphenyl) isothiourea, -isourea, -guanidine and -amidine herbicidal agents” (Intellectual Property Department, BASF Aktiengesellschaft, priority 1998, published 2002)
